Our source for the Ki values is BindingDB's records for doi:10.1038/sj.npp.1300203 (Case Western Reserve University, 2003).

One assay concerns the target Histamine H4 receptor (Homo sapiens, UniProt Q9H3N8).
Assay [1] concerns the target Protein kinase C gamma type (Homo sapiens, UniProt P05129).
The target of assay [2] is Gamma-aminobutyric acid type B receptor subunit 1 (UniProt Q9Z0U4).
The target in assay [3] is T1, Prostaglandin E2 receptor EP3 subtype (Homo sapiens, UniProt P43115).
T1 sequence (P43115 whole entry): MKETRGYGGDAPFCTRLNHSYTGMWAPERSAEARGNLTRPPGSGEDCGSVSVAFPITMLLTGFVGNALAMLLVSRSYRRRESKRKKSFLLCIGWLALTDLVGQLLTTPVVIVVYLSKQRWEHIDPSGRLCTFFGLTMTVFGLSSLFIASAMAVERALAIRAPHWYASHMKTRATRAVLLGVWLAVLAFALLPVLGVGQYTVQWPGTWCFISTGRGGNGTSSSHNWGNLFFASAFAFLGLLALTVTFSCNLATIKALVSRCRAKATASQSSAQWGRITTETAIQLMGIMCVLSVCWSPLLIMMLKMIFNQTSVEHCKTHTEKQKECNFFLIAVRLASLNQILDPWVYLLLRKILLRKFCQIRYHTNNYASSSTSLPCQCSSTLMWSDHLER

Assay [4] concerns the target T2, 5-hydroxytryptamine receptor 3A (Rattus norvegicus, UniProt P35563).
T2 sequence (P35563 whole entry): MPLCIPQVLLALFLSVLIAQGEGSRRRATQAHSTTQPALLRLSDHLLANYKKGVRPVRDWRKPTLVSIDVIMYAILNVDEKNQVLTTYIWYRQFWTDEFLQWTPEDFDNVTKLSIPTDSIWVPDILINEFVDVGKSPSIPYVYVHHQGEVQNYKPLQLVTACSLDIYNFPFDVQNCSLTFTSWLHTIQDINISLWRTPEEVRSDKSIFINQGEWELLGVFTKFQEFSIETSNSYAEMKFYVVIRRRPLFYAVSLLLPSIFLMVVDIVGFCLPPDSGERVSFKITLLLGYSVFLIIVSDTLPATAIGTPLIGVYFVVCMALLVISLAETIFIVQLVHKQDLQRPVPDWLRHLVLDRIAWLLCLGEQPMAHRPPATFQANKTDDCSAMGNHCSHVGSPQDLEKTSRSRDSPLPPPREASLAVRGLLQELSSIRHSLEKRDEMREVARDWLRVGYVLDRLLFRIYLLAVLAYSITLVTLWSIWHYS

Assay [5] concerns the target Protein kinase C alpha type (Homo sapiens, UniProt P17252).
For assay [6], the target named is Prostaglandin E2 receptor EP4 subtype (Homo sapiens, UniProt P35408).
Prostaglandin E2 receptor EP4 subtype, sequence (P35408 whole entry): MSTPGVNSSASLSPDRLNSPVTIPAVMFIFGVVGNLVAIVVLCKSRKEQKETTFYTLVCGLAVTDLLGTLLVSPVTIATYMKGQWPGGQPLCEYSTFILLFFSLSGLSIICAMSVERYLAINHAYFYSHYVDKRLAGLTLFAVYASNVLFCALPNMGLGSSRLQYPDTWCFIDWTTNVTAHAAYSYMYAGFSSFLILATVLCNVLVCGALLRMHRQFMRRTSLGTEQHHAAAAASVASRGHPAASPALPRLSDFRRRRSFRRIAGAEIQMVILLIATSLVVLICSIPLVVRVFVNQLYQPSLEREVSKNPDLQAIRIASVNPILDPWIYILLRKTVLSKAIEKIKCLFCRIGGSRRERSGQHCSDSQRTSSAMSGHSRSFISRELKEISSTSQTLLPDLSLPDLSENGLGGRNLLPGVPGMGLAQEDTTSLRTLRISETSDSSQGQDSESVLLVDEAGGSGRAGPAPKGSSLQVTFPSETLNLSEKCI
The target in another assay is Histamine H3 receptor (Cavia porcellus, UniProt Q9JI35).
Histamine H3 receptor, sequence (Q9JI35 whole entry): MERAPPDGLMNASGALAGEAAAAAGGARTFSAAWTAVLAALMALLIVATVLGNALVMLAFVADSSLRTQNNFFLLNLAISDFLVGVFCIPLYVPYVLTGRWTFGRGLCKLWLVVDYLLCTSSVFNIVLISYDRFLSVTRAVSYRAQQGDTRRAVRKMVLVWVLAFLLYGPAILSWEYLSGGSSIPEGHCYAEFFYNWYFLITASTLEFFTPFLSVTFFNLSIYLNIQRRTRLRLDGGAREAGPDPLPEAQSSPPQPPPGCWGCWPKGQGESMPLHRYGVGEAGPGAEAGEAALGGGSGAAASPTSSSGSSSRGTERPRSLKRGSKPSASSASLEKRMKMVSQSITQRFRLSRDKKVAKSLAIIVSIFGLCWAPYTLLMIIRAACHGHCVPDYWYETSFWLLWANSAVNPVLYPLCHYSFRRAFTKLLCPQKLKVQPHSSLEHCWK

Histamine H4 receptor, sequence (Q9H3N8 whole entry): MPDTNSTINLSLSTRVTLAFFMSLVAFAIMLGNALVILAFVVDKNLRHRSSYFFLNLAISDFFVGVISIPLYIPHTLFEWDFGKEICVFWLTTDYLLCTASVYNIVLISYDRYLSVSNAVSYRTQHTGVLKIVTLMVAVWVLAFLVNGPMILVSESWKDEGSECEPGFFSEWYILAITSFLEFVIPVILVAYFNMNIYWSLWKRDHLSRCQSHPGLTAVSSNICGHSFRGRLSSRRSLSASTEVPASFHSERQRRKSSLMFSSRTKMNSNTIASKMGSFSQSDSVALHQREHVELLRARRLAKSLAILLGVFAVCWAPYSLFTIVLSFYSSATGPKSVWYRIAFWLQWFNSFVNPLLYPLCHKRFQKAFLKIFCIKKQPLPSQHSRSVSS
Gamma-aminobutyric acid type B receptor subunit 1, sequence (Q9Z0U4 whole entry): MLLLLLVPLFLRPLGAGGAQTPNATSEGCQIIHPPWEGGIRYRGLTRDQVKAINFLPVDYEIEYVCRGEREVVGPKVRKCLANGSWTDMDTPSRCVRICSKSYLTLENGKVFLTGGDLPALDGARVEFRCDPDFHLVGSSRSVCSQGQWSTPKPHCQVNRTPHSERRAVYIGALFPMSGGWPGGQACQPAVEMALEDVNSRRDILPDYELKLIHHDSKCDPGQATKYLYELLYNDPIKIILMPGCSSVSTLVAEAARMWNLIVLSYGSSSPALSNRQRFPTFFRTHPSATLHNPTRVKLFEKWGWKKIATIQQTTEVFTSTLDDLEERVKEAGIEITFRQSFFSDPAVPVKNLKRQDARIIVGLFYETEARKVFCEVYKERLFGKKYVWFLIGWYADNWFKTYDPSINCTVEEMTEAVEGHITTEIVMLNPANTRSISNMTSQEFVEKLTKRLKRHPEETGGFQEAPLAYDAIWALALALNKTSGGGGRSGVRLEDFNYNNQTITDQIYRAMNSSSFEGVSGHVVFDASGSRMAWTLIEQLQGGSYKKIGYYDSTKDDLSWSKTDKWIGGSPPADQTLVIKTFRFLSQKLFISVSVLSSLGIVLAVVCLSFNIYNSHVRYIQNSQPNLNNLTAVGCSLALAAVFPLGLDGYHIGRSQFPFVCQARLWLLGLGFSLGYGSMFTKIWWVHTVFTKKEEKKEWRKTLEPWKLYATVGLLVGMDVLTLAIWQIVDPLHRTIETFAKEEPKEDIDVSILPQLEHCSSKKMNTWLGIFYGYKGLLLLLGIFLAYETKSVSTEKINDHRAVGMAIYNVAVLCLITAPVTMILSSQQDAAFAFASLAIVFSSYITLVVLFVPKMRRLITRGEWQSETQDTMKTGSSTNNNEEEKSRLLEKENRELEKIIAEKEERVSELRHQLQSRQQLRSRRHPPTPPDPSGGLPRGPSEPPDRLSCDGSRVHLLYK

By Ki is commonly meant the dissociation constant of the complex between target and ligand, obtained from inhibition or displacement. For the compound `O=C1CCc2ccc(OCCCCN3CCN(c4cccc(Cl)c4Cl)CC3)cc2N1` [7-{4-[4-(2,3-dichlorophenyl)piperazin-1-yl]butoxy}-3,4-dihydroquinolin-2(1H)-one], the Ki on Histamine H4 receptor is above 10 µM; in assay [1] it was 8 µM; in assay [2], above 10 µM; in assay [3], above 10 µM; in assay [4], 0.63 µM; in assay [5] it was above 10 µM. Moreover, the figures for the Ki (in assay [6]; at Histamine H3 receptor) were above 10 µM and 0.224 µM, respectively.
